Columns and labels:
[1] = test system: HeLa cells; experiment: Flow cytometry cell cycle analysis by PI staining; type: cell-based, human; conditions: 48 h, complexes at IC50, cis-platin 5 μM
Protocol: A flow cytometer was also used to do the apoptotic assessment. HeLa cells (5 × 10^5) were seeded onto 6-well plates using Dulbecco's Modified Eagle Medium paper (DMEM) with 10% FBS. The plates were incubated overnight at 37 °C with 95% air and 5% CO2. […] Following trypsinization, the cells were collected, cleaned with PBS, and fixed for 24 hours at 2–6 °C in ice-cold 70% ethanol. Centrifugation was used to remove the ethanol, and cold PBS was used twice to wash the cell pellets. Later the cells were stained with propidium iodide (PI, 1 mg mL^−1) and incubated for 30 min. Flow cytometric analysis was performed using a FACS scanner and the Becton Dickinson cell search program at 595 nm and the distribution of cells in various cell cycle phases was determined.[69,70]
Through cell cycle analysis, the mechanism of cancer cell death caused by the complexes was evaluated. Anticancer drugs promote growth-inhibitory action in cancer cells by a variety of mechanisms, one of which is dysfunction in the regulation of the cell cycle.[32] For example, cis-platin inhibits DNA transcription in cells by stopping the cell cycle in the S and G2/M phases. PI staining and flow cytometry were used to examine the ability of the complexes to modify the cell cycle (Fig. 19).

[2] = test system: CT-DNA; conditions: constant used in eqn (6); no reference given; cited from earlier work

SMILES | G0/G1 phase [1] | M Phase [1] | S Phase [1] | Sub-G0 phase [1] | KEtBr, DNA binding constant of EB [2]
N.N.[Cl][Pt][Cl] [Cis-platin, cis-platin, reference compound] | 27.12% | 17.52% | 10.11% | 45.25% | –
CC[n+]1c(-c2ccccc2)c2cc(N)ccc2c2ccc(N)cc21 [EB, ethidium bromide] | – | – | – | – | 1e+07 M⁻¹

From paper PMC12264794, “Homoleptic complexes of titanium(IV) fused with O^N^O Schiff base derivatives: design, BSA–DNA interaction, molecular docking, DFT and cytotoxicity” (RSC Advances, 2025)
